Test results taken from paper PMC2954226, “Structure of the γ-D-glutamyl-L-diamino acid endopeptidase YkfC from Bacillus cereus in complex with L-Ala-γ-D-Glu: insights into substrate recognition by NlpC/P60 cysteine peptidases” (Acta Crystallographica Section F: Structural Biology and …, 2010).
Non-standard residues stand in square brackets, D forms with d. Residues, ends and D or L forms follow the SMILES beside them.

Biological target: T1, BcYkfC (Bacillus cereus, UniProt Q736M3)
T1 construct: gene ykfC; signal peptide (residues 1-23) removed; N-terminal His tag cut by TEV leaving Gly0; selenomethionine protein from E. coli; SH3b1 (29-129), SH3b2 (130-207) and NlpC/P60 (208-333) domains; model 29-333; monomer
T1 sequence (Q736M3 24-333): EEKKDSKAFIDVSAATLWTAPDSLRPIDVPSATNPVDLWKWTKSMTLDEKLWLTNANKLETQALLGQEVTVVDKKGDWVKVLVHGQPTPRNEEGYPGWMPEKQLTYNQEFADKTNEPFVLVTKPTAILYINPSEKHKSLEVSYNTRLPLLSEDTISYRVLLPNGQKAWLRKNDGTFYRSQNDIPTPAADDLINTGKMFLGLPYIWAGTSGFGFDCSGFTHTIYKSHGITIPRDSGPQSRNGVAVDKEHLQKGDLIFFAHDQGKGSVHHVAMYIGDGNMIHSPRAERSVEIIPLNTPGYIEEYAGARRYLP
Experiment: X-ray crystal structure, […] Å (SeMet MAD)
Type: binding
Settings: ligand co-purified, most likely from E. coli expression host; S2-S1 site; catalytic Cys238 oxidized (OCS), enzyme inactive in the crystal; crystallized at pH 4.2, 277 K

## C[C@H](N)C(=O)N[C@H](CCC(=O)O)C(=O)O [L-Ala-γ-D-Glu] (H-Ala-[dE]-OH)
  X-ray crystal structure, 1.79 Å (SeMet MAD): The dipeptide L-Ala-γ-D-Glu was identified from well defined electron density in the active site
